Experimental data taken from patent US10072293B2, “Systems, models and methods for identifying and evaluating skin-active agents effective for treating dandruff/seborrheic dermatitis” (The Procter and Gamble Company, priority 2011, dated 2018).
Where “and” joins values, the source holds several entries; their conditions need not be identical. Identical values can stand only once.

How the values were obtained:
[1] = test system: human 3-dimensional organotypic cultures; assay: In vitro model of dandruff: organotypic skin cultures given IL-22 and IL-17A; assay type: cell-based; conditions: organotypic cultures treated with IL-22 and IL-17A
Excerpt: In some embodiments, the methods of the present invention may further comprise testing the selected candidate cosmetic agent, using in vitro assays and/or in vivo testing, to validate the activity of the agent and usefulness as a cosmetic agent. Any suitable in vitro test method can be used, including those known in the art, and most preferably in vitro models developed in accordance with the present invention. For example, MatTek human skin equivalent cultures or other skin equivalent cultures may be treated with one or a combination of perturbagens selected for mimicry of the skin condition of interest with respect to regulation of the genes constituting a physiological theme pattern for the skin condition of interest. The treated skin culture replicates the, for example, dandruff condition where it is treated with IL17 and IL22 in accordance with the instant invention, and perturbagens may be screened for their ability to shift the homeostatic equilibrium of the treated skin culture toward healthy skin, as determined by transcriptional analysis. Skin biopsy assays may also be used to evaluate candidate skin-active agents as anti-dandruff agents. In some embodiments, evaluation of selected agents using in vitro assays may reveal, confirm, or both, that one or more new candidate cosmetic agents may be used in conjunction with a known cosmetic agent (or a combination of known cosmetic agents) to regulate a skin condition of interest.
A great challenge in the identification of new therapeutics is the development of in vitro models that are predictive of clinical efficacy. Because no animal models of the dandruff condition are available, there is a need for a model with high fidelity to the internal disease state so that it recapitulates the key features of dandruff lesional skin in vivo. The challenge of developing a good in vitro model for skin conditions such as dandruff is complicated by the fact that the events that trigger the development of dandruff are poorly understood. Transcriptomic profiling work in dandruff lesional skin has provided many new clues, chief among them evidence for a Th-17 driven inflammatory process.
These substances include selenium sulfide, ZPT, ketoconazole, clobetasol propionate and the iron chelator 1,10-phenanthroline.
The in vitro disease simulation according to the invention produces a pattern of gene expression that strongly resembles dandruff lesional skin. Affymetrix U133A Plus 2 microarrays were used to evaluate the gene expression profile elicited by exposure of organotypic human skin cultures to a variety of proinflammatory cytokines individually and in combination, as set forth in FIG. 21A and FIG. 21B. […] This strongly supports that the simulation is producing a gene expression pattern that resembles the disease condition.

[2] = test system: fibroblast and keratinocyte cell lines; assay: C-map query with lipid-immune dandruff signature, whole database; assay type: cell-based, human; conditions: each agent tested at several concentrations
Procedure: (§1) Human telomerized keratinocytes (tKC) were obtained from the University of Texas, Southwestern Medical Center, Dallas, Tex. tKC cells were grown in EpiLife® media with 1× Human Keratinocyte Growth Supplement (Invitrogen, Carlsbad, Calif.) on collagen I coated cell culture flasks and plates (Becton Dickinson, Franklin Lakes, N.J.). Keratinocytes were seeded into 6-well plates at 20,000 cells/cm^2 24 hours before chemical exposure. Human skin fibroblasts (BJ cell line from ATCC, Manassas, Va.) were grown in Eagle's Minimal Essential Medium (ATCC) supplemented with 10% fetal bovine serum (HyClone, Logan, Utah) in normal cell culture flasks and plates (Corning, Lowell, Mass.). BJ fibroblasts were seeded into 6-well plates at 12,000 cells/cm^2 24 hours before chemical exposure.
Each agent was tested at several concentrations.

[3] = test system: Human telomerized keratinocytes (tKC); assay: C-map query with lipid metabolism / immune-inflammation dandruff gene signature, keratinocyte instances; assay type: cell-based
Excerpt: In a very specific embodiment, an instance consists of the rank ordered data for all of the probe sets on the Affymetrix HG-U133A2.0 GeneChip wherein each probe on the chip has a unique probe set IDentifier. The probe sets are rank ordered by the fold change relative to the controls in the same C-map batch (single instance/average of controls).
Individual experiments (referred to as batches) generally comprise 30 to 96 samples analyzed using Affymetrix GeneChip® technology platforms, containing 6 replicates of the vehicle control (e.g., DMSO), 2 replicate samples of a positive control that gives a strong reproducible effect in the cell type used, and samples of the test material/perturbagen. Replication of the test material is done in separate batches due to batch effects. In vitro testing was performed in 6-well plates to provide sufficient RNA for GeneChip® analysis (2-4 μg total RNA yield/well).
as §1
All cells were incubated at 37° C. in a humidified incubator with 5% CO2. At t=−24 hours cells were trypsinized from T-75 flasks and plated into 6-well plates in basal growth medium. At t=0 media was removed and replaced with the appropriate dosing solution as per the experimental design.

[4] = test system: reconstituted human epidermis (RHE); assay: Connectivity map linkage scores, inflammatory skin disorder signature (top 70 up / 70 down), RHE instances; assay type: cell-based; set-up: scale not given here
Excerpt: (§2) Gene expression data from five inflammatory skin disorders (acne, atopic dermatitis, dandruff, eczema and psoriasis) were collected from a clinical genomics study and published studies. The raw expression data were used to produce a rank-ordered list of most differentially regulated genes associated with inflammatory skin disorders.
(§3) The derived gene signature was used to query a provided database comprising gene expression data from clinical genomics studies of a widely different inflammatory skin disorders, published in vitro genomics studies of disparate inflammatory skin disorders, and genomics data from an internal in vitro model of dandruff inflammatory pathology (human organotypic, MatTek, cultures).

[5] = test system: human keratinocytes (hKC); assay: Connectivity map linkage scores, inflammatory skin disorder signature, hKC instances; assay type: cell-based
Excerpt: as §2
as §3, with “cultures). […] Thus, the internal model was validated as being useful for study of inflammatory cascades and other gene expression alterations associated with inflammatory skin disorders.” for “cultures).”

[6] = test system: MCF7; assay: C-map query with lipid metabolism / immune-inflammation dandruff gene signature, MCF7 instances; conditions: MCF7, 10 μM
[7] = test system: scalp skin of dandruff subjects; assay: ZPT transcriptomics study: double-blind, vehicle-controlled shampoo treatment, scalp biopsy gene expression; assay type: in vivo, human; conditions: shampoo with 1% ZPT, 3 times a week for 3 weeks, week 3
Excerpt: 1) 31 healthy male subjects aged 18-75 were divided into two groups of 16 “non-dandruff” and 15 “dandruff” subjects, as defined by a published flake scoring procedure, adherent scalp flake score (ASFS). […] 2) In a double-blinded treatment study, 45 healthy male subjects (30 dandruff and 15 non-dandruff as defined by ASFS criteria, aged 18-50 years) were enrolled and were shampooed at the clinical site three (3) times a week for three (3) weeks with either a commercially available anti-dandruff shampoo with 1% ZPT (15 dandruff subjects) or the same formula without ZPT (15 dandruff and 15 non-dandruff subjects). Full thickness 2 mm biopsies were collected from all three groups at baseline and end of study. Total RNA was extracted from the biopsies and labeled for Affymetrix GeneChip® analysis. The synthesized target cRNA was hybridized to Affymetrix HG U133A microarrays. Statistically analyzed data were filtered by significance (p<0.05, Dandruff vs. Non-Dandruff; ZPT vs. vehicle treatments) to identify genes showing an increase or decrease in expression level, a standard bioinformatics approach. Methodology and Results of Study 1:
The subject's hair/scalp was washed by study personnel on clinical site 3×/week for 3 weeks. Full thickness 2 mm punch biopsies collected at baseline and end of study. […]

S=[Se]=S [selenium sulfide]
Blocking of IL-22/IL-17A-induced responses (hyperplasia, perturbed differentiation markers, IL-8 secretion) [1]: capable of blocking these responses | Linkage to lipid-immune dandruff gene signature [2]: not in the list of instances strongly linked to the gene signature

c1cnc2c(c1)ccc1cccnc12 [1,10-phenanthroline]
Blocking of IL-22/IL-17A-induced responses (hyperplasia, perturbed differentiation markers, IL-8 secretion) [1]: capable of blocking these responses

CC(=O)N1CCN(c2ccc(OCC3COC(Cn4ccnc4)(c4ccc(Cl)cc4Cl)O3)cc2)CC1 (centres unmarked) [Ketoconazole]
Score (connectivity score) ([3]; 1 μM, 24hr (chip ID)): −0.58 | Blocking of IL-22/IL-17A-induced responses (hyperplasia, perturbed differentiation markers, IL-8 secretion) [1]: capable of blocking these responses

CCC(=O)O[C@]1(C(=O)CCl)[C@@H](C)C[C@H]2[C@@H]3CCC4=CC(=O)C=C[C@]4(C)[C@@]3(F)[C@@H](O)C[C@@]21C [Clobetasol Propionate]
Blocking of IL-22/IL-17A-induced responses (hyperplasia, perturbed differentiation markers, IL-8 secretion) [1]: capable of blocking these responses

IL1b: interleukin
Score ([4]; 10 ng/ml): 0.710 and 0.649 | Up Score ([4]; 10 ng/ml): 0.420 and 0.380

CC(C)(C)C(=O)C(Oc1ccc(Cl)cc1)n1ccnc1 (centres unmarked) [Climbazole]
Score (connectivity score) ([3]; 1 μM, 6hr (chip ID)): −0.55 | Score (connectivity score) ([3]; 10 μM, 24hr (chip ID)): −0.67

HK23/2 IL17: interleukin; proinflammatory cytokine produced by Th-17 cells
Down Score ([5]; 200 ng/ml): −0.151 | Score ([5]; 200 ng/ml): 0.579 | Up Score ([5]; 200 ng/ml): 0.428

CN(CCOc1ccc(CC2SC(=O)NC2=O)cc1)c1ccccn1 (centres unmarked) [Rosiglitazone]
Score (connectivity score) [6]: −0.51

O=C(O)Cc1cc(I)c(Oc2ccc(O)c(I)c2)c(I)c1 [Triac]
Score (connectivity score) ([3]; 10 μM, exposure time not given): −0.53

[O-]n1ccccc1=S.[O-]n1ccccc1=S.[Zn+2] [ZPT, zinc salt of 1-hydroxy-2-pyrithione]
Blocking of IL-22/IL-17A-induced responses (hyperplasia, perturbed differentiation markers, IL-8 secretion) [1]: capable of blocking these responses | Scalp gene expression profile shift (~3700 significantly altered genes, hierarchical clustering) [7]: expression shift toward the non-dandruff condition | Linkage to lipid-immune dandruff gene signature [2]: not in the list of instances strongly linked to the gene signature

B1: IL24: interleukin (protein, UniProt Q13007 52-206, looked up)
Interleukin-24: QEFHFGPCQVKGVVPQKLWEAFWAVKDTMQAQDNITSARLLQQEVLQNVSDAESCYLVHTLLEFYLKTVFKNYHNRTVEVRTLKSFSTLANNFVLIVSQLQPSQENEMFSIRDSAHRRFLLFRRAFKQLDVEAALTKALGEVDILLTWMQKFYKL
Score ([4]; 20 ng/ml): 0.833 and 0.829 and 0.801 | Up Score ([4]; 20 ng/ml): 0.485 and 0.517 and 0.461

B2: IL19: interleukin (protein, UniProt Q9UHD0 25-177, looked up)
Interleukin-19: LRRCLISTDMHHIEESFQEIKRAIQAKDTFPNVTILSTLETLQIIKPLDVCCVTKNLLAFYVDRVFKDHQEPNPKILRKISSIANSFLYMQKTLRQCQEQRQCHCRQEATNATRVIHDNYDQLEVHAAAIKSLGELDVFLAWINKNHEVMFSA
Score ([4]; 20 ng/ml): 0.749 and 0.729 and 0.807 | Up Score ([4]; 20 ng/ml): 0.410 and 0.460 and 0.505

B3: IFNg: interferon (protein, UniProt P01579 24-161, looked up)
Interferon gamma: QDPYVKEAENLKKYFNAGHSDVADNGTLFLGILKNWKEESDRKIMQSQIVSFYFKLFKNFKDDQSIQKSVETIKEDMNVKFFNSNKKKRDDFEKLTNYSVTDLNVQRKAIHELIQVMAELSPAAKTGKRKRSQMLFRG
Score ([4]; 10 ng/ml): 0.665 and 0.657 | Up Score ([4]; 10 ng/ml): 0.420 and 0.431 | Down Score ([5]; 20 ng/ml): −0.102 | Score ([5]; 20 ng/ml): 0.552 | Up Score ([5]; 20 ng/ml): 0.450

B4: IL22: interleukin; proinflammatory cytokine produced by Th-17 cells (protein, UniProt Q9GZX6 34-179, looked up)
Interleukin-22: APISSHCRLDKSNFQQPYITNRTFMLAKEASLADNNTDVRLIGEKLFHGVSMSERCYLMKQVLNFTLEEVLFPQSDRFQPYMQEVVPFLARLSNRLSTCHIEGDDLHIQRNVQKLKDTVKKLGESGEIKAIGELDLLFMSLRNACI
Score ([4]; 20 ng/ml): 0.789 and 0.740 and 0.705 | Up Score ([4]; 20 ng/ml): 0.444 and 0.410 and 0.388 | Down Score ([5]; 200 ng/ml): −0.214 | Score ([5]; 200 ng/ml): 0.573 | Up Score ([5]; 200 ng/ml): 0.358
